# Assay results: patent US20210163453A1, “DERIVATIVES OF PAPAVERINE THAT ARE EFFECTIVE HYPOXIC TUMOR RADIOSENSITIZERS” (Ohio State Innovation Foundation, priority 2018, published 2021)
# Entries after “also recorded” stand apart in the source; their conditions may differ.
# Assays:
# [1] = cited from earlier work
# [2] = test system: EO771 or A549 flank tumors; assay: FD-NIRS tissue oxygenation in tumor-bearing mice; type: in vivo
# Method: In vivo oxygenation measurements. All animal experiments were performed according to protocols approved by institutional IACUC review, with daily veterinarian observation. 2×10^6 EO771 or 5×10^6 A549 cells were injected s.c. into the flanks of 6-week old female immunocompromised nu/nu mice. Caliper measurements of opposing diameters were used to calculate the tumor volumes. Upon reaching […], the animals were anesthetized by inhalation of 1.5% isoflurane and tumor and thigh muscle oxygenation was measured with NIRS optical probe for 30 minutes. Once the baseline oxygenation was established, the animals were injected with either 2 mg per kg of body weight of papaverine hydrochloride or saline by tail vein. Tissue oxygenation was measured for 120 minutes. Obtained oxygenation values were normalized to time of injection and average of 5 traces per treatment averaged. Error bars represent the standard deviation.
# Frequency-domain near-infrared spectroscopy (FD-NIRS) can noninvasively quantify tissue hemoglobin concentration (THb) and oxygenation (SO2) in real time. This technology uses light in the 700-800 nm wavelength because it has reasonably good tissue penetration (nominally 1-2 cm in depth). A FD-NIRS system with a novel side firing probe to measure changes in tumor oxygenation in response to pharmacological intervention was developed and used in this example. This example has generated in vivo data showing that papaverine can increase oxygenation in xenografted tumors in mice.
# The FD-NIRS instrument consists of a network analyzer as the radio frequency (RF) source and phase-sensitive detection system, a 1×4 RF switch, a 4×2 optical switch, a multi-channel laser diode controller, four laser diodes (654, 779, 805 and 847 nm) installed in mounts with a bias-T, an avalanche photodiode (APD) module, and a laptop computer loaded with custom software. The surface probe consists of two side-firing source fibers (200/220/240 µm, NA=0.22) and a single side-firing detection fiber (600/660/710 µm, NA=0.22), providing two source-detector separations (SDSs) of 5 and 10 mm, respectively. The fiber tips are polished to a […] and coated with a mirror to create a light path perpendicular to the fiber. All the fiber tips are epoxied into a V-groove on a thin Delrin plate (biocompatible) so that it can be easily attached to the skin surface above a tumor. The two SDSs allow elimination of artifacts due to instrument response and the skin effects, while providing a penetration depth around 10-15 mm in typical tissue.
# The FD-NIRS instrument launches intensity-modulated continuous wave lasers into the tissue and collects the amplitude-attenuated and phase-shifted diffuse reflectance from the tissue at the same frequency of the incident light, both through the side-firing probe. […]
# [3] = test system: mitochondrial function; details: cited from earlier work
smiles,measurement,setting,value
"COc1ccc(Cc2nccc3cc(OC)c(OC)cc23)cc1OC [PPV, papaverine]",expected half-life,[1]; Ritschel et al.,90 to 120 min
same,"half-life, cleared from the serum",[1]; in vivo,1.5 to 2 h
same,tumor oxygenation,"[2]; 2 mg/kg by tail vein, within first 30-45 minutes",significantly increased the oxygenation; also recorded: statistically significant
same,oxygenation of normal thigh muscle,[2]; 2 mg/kg i.v.,no significant change
same,maximum tumor oxygenation above baseline,"[2]; 2 mg/kg i.v., 30 min post injection",1.35-1.45 × above baseline
same,oxygenation of normal thigh muscle,"[2]; 2 mg/kg i.v., listed as papaverine",no change was detected
same,growth of cells in media containing only galactose,[3],slow the growth of cells
